SMILES strings stand for the structures. In brackets after ≈: the same amount, converted by molar mass.

One may read the MIC as the least concentration at which growth counts as inhibited. Lower therefore signals a more susceptible organism.

In test [1] the test system is Erysiphe graminis f.sp. hordei. The test can be described thus: Erysiphe test (barley)/protective (Example 29). It is filed as in vivo, Erysiphe graminis f.sp. hordei (on barley). Conditions: protective, active compound concentration in spray liquor 0.025 % by weight, 7 days after inoculation. As for the experimental part: Solvent: 100 parts by weight of dimethylformamide Emulsifier: 0.25 part by weight of alkylaryl polyglycol ether To produce a suitable preparation of active compound, 1 part by weight of active compound is mixed with the stated amounts of solvent and emulsifier, and the concentrate is diluted with water to the desired concentration. To test for protective activity, young plants are sprayed with the preparation of active compound until dew-moist. After the spray coating has dried on, the plants are dusted with spores of Erysiphe graminis f.sp. hordei. The plants are placed in a greenhouse at a temperature of about 20° C. and a relative atmospheric humidity of about 80%, in order to promote the development of powdery mildew pustules. Evaluation is carried out 7 days after the inoculation.

For another test, the system named is Alternaria tenuis. The test is described as follows: MIC against fungi in beer wort/peptone agar (Example 26). Conditions: Alternaria alternata, 336 h, 28° C., 2 weeks. It is filed as cell-based. As for the experimental part: (§1) Active compounds according to the invention are added in concentration of 0.1 mg/liter to 5,000 mg/liter to an agar prepared from beer wort and peptone. After storage at 28° C. and 60 to 70% relative atmospheric humidity for 2 weeks, the MIC is determined. The MIC is the lowest concentration of active compound at which no growth at all of the species of microbe used takes place; it is shown in the Table which follows.

The next test concerns Aspergillus niger. The description is as above. Conditions: 336 h, 28° C., 2 weeks. It is filed as cell-based. As for the experimental part:
as §1

The test system of a further test is Aureobasidium pullulans. The description is as above. It is filed as cell-based. Conditions: 336 h, 28° C., 2 weeks. As for the experimental part:
as §1

The subject of the next test is Chaetomium globosum. The test is described as above. It is filed as cell-based. Conditions: 336 h, 28° C., 2 weeks. As for the experimental part: as §1
A further test has as its system Coniophora cerebella. The test is described as above. It is filed as cell-based. Conditions: 336 h, 28° C., 2 weeks. The procedure:
as §1

In a further test the test system is Lentinus tigrinus. The description is as above. It is filed as cell-based. Conditions: 336 h, 28° C., 2 weeks. As for the experimental part:
as §1

Another test deals with Penicillium glaucum. The description is as above. It is filed as cell-based. Conditions: 336 h, 28° C., 2 weeks. As for the experimental part:
as §1

For a further test, the system named is Polyporus versicolor. The test is described as above. It is filed as cell-based. Conditions: Trametes versicolor, 336 h, 28° C., 2 weeks. As for the experimental part:
as §1

In another test the test system is Sclerophoma pityophila. Described as above. It is filed as cell-based. Particulars: Sydowia polyspora, 336 h, 28° C., 2 weeks. The procedure: as §1
The next test concerns Staphylococcus aureus. The test is described as follows: Action against bacteria, MIC in bouillon agar (Example 27). It is filed as cell-based. Particulars: 336 h, 28° C., 2 weeks. The procedure:
The active compounds listed in Table II are added in concentrations of 1 to 5000 ppm to an agar containing bouillon as the nutrient medium. The nutrient medium is then infected with Staphylococcus aureus and the infected medium is kept at 28° C. and 60 to 70% relative atmospheric humidity for 2 weeks. The MIC is the lowest concentration of active compound at which no growth at all of the species of microbe used takes place.

For a further test, the system named is slime organisms. The test is described as follows: Action against slime organisms, MIC in Allens nutrient solution (Example 28). It is filed as cell-based. Particulars: 504 h, room temperature, 3 weeks. The procedure: The compounds according to Examples 3, 5 and 10 are each used, dissolved in a little acetone, in concentrations of 0.1 to 100 mg/liter in Allens nutrient solution (Arch. Mikrobiol. 17, 34-53 (1952)), which contains, in 4 liters of sterile water, 0.2 g of ammonium chloride, 4.0 g of sodium nitrate, 1.0 g of dipotassium hydrogen phosphate, 0.2 g of calcium chloride, 2.05 g of magnesium sulphate, 0.02 g of iron chloride and 1% of caprolactam. Shortly beforehand, the nutrient solution is infected with slime organisms (about 10^6 germs/ml), which have been isolated from spinning water circulations used in the manufacture of polyamide. Nutrient solutions which contain the minimum inhibitory concentration (MIC) or higher concentrations of active compound are still completely clear after culture at room temperature for 3 weeks, that is to say the marked multiplication of the microbes and formation of slime noticeable after 3 to 4 days in nutrient solutions containing no active compound are absent.

Another test concerns Pyricularia oryzae. It is filed as in vivo, Pyricularia oryzae (on rice). Conditions: rice, protective; active compound concentration 0.025 %; 4 days after inoculation.
A further test deals with Fusarium nivale. The test is described as follows: Fusarium nivale test (rye)/seed treatment (Example 30). Particulars: seed treatment, 500 mg/kg of seed, about 3 weeks after sowing, not dressed 12.8. It is filed as in vivo, Fusarium nivale (on rye). The procedure:
The active compounds are used as dry dressings. These are prepared by extending the particular active compound with a ground mineral to give a finely pulverulent mixture, which ensures uniform distribution on the seed surface. To apply the dressing, the infected seed is shaken with the dressing in a closed glass flask for 3 minutes. 2 batches of 100 grains of the rye are sown 1 cm deep in standard soil and are cultivated in a greenhouse at a temperature of about 10° C. and a relative atmospheric humidity of about 95%, in seedboxes which are exposed to light for 15 hours daily. About 3 weeks after sowing, the plants are evaluated for symptoms of snow mould.

Regarding `O=C1CN(SC(F)(Cl)Cl)C(=O)N1C1CCCCC1` [drawing 16], the “Disease infestation in % of the untreated control” value (“Disease infestation in %” below) in test [1] is on record as 0.0 % of the untreated control.
Regarding `CN1C(=O)N(SC(F)(Cl)Cl)C(C)(C)C1=O` [Example 3], the MIC was determined as 1.5 µg/mL (≈ 5.45 µM) against Alternaria tenuis; 10 µg/mL (≈ 36.3 µM) with Aspergillus niger; 1 µg/mL (≈ 3.63 µM) against Aureobasidium pullulans; 1.5 µg/mL (≈ 5.45 µM) against Chaetomium globosum; 1 µg/mL (≈ 3.63 µM) against Coniophora cerebella; 1 µg/mL (≈ 3.63 µM) in the test on Lentinus tigrinus. In addition, the MIC was 50 µg/mL (≈ 182 µM) against Penicillium glaucum; 7.5 µg/mL (≈ 27.3 µM) against Polyporus versicolor; 5 µg/mL (≈ 18.2 µM) in the test on Sclerophoma pityophila; 50 µg/mL (≈ 182 µM) with Staphylococcus aureus; 3 µg/mL (≈ 10.9 µM) against slime organisms.
Regarding `O=C1CN(SC(F)(Cl)Cl)C(=O)N1C1CCCCC1` [drawing 20], in the test with Pyricularia oryzae, the “Disease infestation in %” value is listed as 13 % of the untreated control.
As for `O=C1C2CC=CCC2C(=O)N1SC(Cl)(Cl)Cl` (stereo not drawn) [Captan, reference compound], the “Disease infestation in %” value in test [1] is listed as 100 % of the untreated control. Further, in the test on Fusarium nivale, the “Diseased plants in % of the total plants emerged” value is on record as 5.4 % of the total plants emerged.
For `CC1(C)C(=O)N(C2CCCCC2)C(=O)N1SC(F)(Cl)Cl` [Example 10], the MIC in the test with Alternaria tenuis was 3.5 µg/mL (≈ 10.2 µM); in the test with Aspergillus niger, 20 µg/mL (≈ 58.3 µM); against Aureobasidium pullulans, 3.5 µg/mL (≈ 10.2 µM); against Chaetomium globosum it was 1.5 µg/mL (≈ 4.37 µM); in the test on Coniophora cerebella, 0.75 µg/mL (≈ 2.18 µM); against Lentinus tigrinus, 0.75 µg/mL (≈ 2.18 µM). The MIC came to 75 µg/mL (≈ 218 µM) in the test with Penicillium glaucum; 15 µg/mL (≈ 43.7 µM) in the test on Polyporus versicolor; 5 µg/mL (≈ 14.6 µM) in the test on Sclerophoma pityophila; 50 µg/mL (≈ 146 µM) against Staphylococcus aureus; 100 µg/mL (≈ 291 µM) against slime organisms.
Consider `CCCCN1C(=O)CN(SC(F)(Cl)Cl)C1=O` [Example 5], for which the MIC in the test with Alternaria tenuis was determined as 2 µg/mL (≈ 6.92 µM); with Aspergillus niger, 50 µg/mL (≈ 173 µM); in the test on Aureobasidium pullulans, 2 µg/mL (≈ 6.92 µM); against Chaetomium globosum it was 3.5 µg/mL (≈ 12.1 µM); in the test with Coniophora cerebella, 0.75 µg/mL (≈ 2.59 µM); against Lentinus tigrinus, 0.75 µg/mL (≈ 2.59 µM). The MIC in the test on Penicillium glaucum came to 100 µg/mL (≈ 346 µM); with Polyporus versicolor it was 15 µg/mL (≈ 51.9 µM); against Sclerophoma pityophila, 5 µg/mL (≈ 17.3 µM); in the test on Staphylococcus aureus it was 100 µg/mL (≈ 346 µM); in the test with slime organisms it was 5 µg/mL (≈ 17.3 µM).
As to `CN1C(=O)CN(SC(F)(Cl)Cl)C1=O`, in the test with Fusarium nivale, the “Diseased plants in % of the total plants emerged” value is reported as 0.0 % of the total plants emerged.
`O=C1C2CC=CCC2C(=O)N1SC(Cl)(Cl)Cl` (stereo not drawn) [drawing 19, reference compound]: the “Disease infestation in %” value in the test on Pyricularia oryzae is reported as 50 % of the untreated control.

The record behind these values is patent publication US4547517A, “Microbicidal N-sulphenylated hydantoins” (Bayer Aktiengesellschaft, priority 1983, dated 1985).
